The source of these data is ChEMBL document CHEMBL1158913, “Peroxy Aliphatic Esters from the Sponge Plakortis lita” (1990).

This experiment deals with P388. Nature of the experiment: Cytotoxicity against mouse P388 cells. The format is functional. The note with it: read-out: ED50 (the source's name).

Turning to `C/C=C/C=C/CCCCCCCCCCC[C@]1(OC)C=C[C@H](CC(=O)OC)OO1`, the EC50 was > 10 µg/mL.
With `CCCCCCCCCCCCCCCC[C@@]1(OC)C=C[C@@H](CC(=O)OC)OO1` [CHONDRILLIN], the EC50 is > 10 µg/mL.
